The test system of one assay is AECO001 (ATCC25922). Kind of assay: MIC broth microdilution, AECO001. The format is cell-based, E. coli. The settings on record: for MIC: Escherichia coli, ATCC25922, read-out: MIC AECO001. The essentials:
(§1)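 CLSI-guided microdilution: bacteria passaged overnight at 35° C. on Mueller-Hinton agar, tested in cation-adjusted broth at a final 3×10^5–7×10^5 CFU/mL across 2-fold drug dilutions, read after 18-24 h at 35° C.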

Another assay relates to APAE001 (ATCC27853). The assay is described as follows: MIC broth microdilution, APAE001. The note with it: for MIC: Pseudomonas aeruginosa, ATCC27853, read-out: MIC APAE001, APAE001 is ATCC27853. The format is cell-based, P. aeruginosa. The essentials: as §1
Assay [1] relates to APAE006 in the presence of 8 micrograms per milliliter of polymyxin B nonapeptide. The format is cell-based, P. aeruginosa. The note with it: in the presence of 8 micrograms per milliliter of polymyxin B nonapeptide. The method, boiled down:
(§2)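 CLSI broth microdilution in cation-adjusted Mueller-Hinton broth, final inoculum 3×10^5–7×10^5 CFU/mL, 2-fold drug dilutions, 18-24 hours at 35° C. in ambient air. APAE006 is an efflux-pump-inactivated P. aeruginosa strain. Assay performance monitored with QC strains and levofloxacin.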

For assay [2], the system named is APAE006 (strain of P. aeruginosa in which all efflux pumps are inactivated). Kind of assay: microbe, parasite or virus in culture. It is filed as cell-based. The note with it: for MIC: Pseudomonas aeruginosa, read-out: MIC APAE006, P. aeruginosa, all efflux pumps inactivated. The method, boiled down: as §2
The subject of assay [3] is ASAU001 (laboratory strain of S. aureus, ATCC29213). Kind of assay: MIC broth microdilution, ASAU001. The format is cell-based. The settings on record: for MIC: Staphylococcus aureus, ATCC29213, read-out: MIC ASAU001. The essentials: as §1
For orientation: Broth dilution looks for growth in wells or tubes with falling amounts of substance.

The test system of another assay is AECO001 HSA AGP. The assay is described as follows: MIC broth microdilution, AECO001 HSA AGP. The format is cell-based, E. coli. The note with it: for MIC: Escherichia coli. The essentials:
as §1

For assay [4], the system named is AECO063 (ATCC25922 bearing an acrAB mutation). The assay is described as follows: microbe, parasite or virus in culture. It is filed as cell-based, E. coli. The note with it: for MIC: Escherichia coli, ATCC25922, read-out: MIC AECO063. The method, boiled down:
as §1

The test system of assay [5] is AABA1060 (clinical isolate of Acinetobacter baumannii). Kind of assay: MIC broth microdilution, AABA1060. The format is cell-based. The note with it: for MIC: Acinetobacter baumannii, read-out: MIC AABA1060. The essentials: as §1

In brackets after ≈: the same amount, converted by molar mass.

For `C[C@@H](O)[C@H](NC(=O)c1ccc(C#Cc2cccc(OC(F)(F)F)c2)cc1)C(=O)NO` [Example 133-11], the MIC in the assay on AECO001 (ATCC25922) was < 2 µg/mL; with APAE001 (ATCC27853), 16 to 64 µg/mL (≈ 37.9 to 152 µM); in assay [2] it was 2 to 16 µg/mL (≈ 4.74 to 37.9 µM); in assay [3], 16 to 64 µg/mL (≈ 37.9 to 152 µM); in the assay on AECO001 HSA AGP, 16 to 64 µg/mL (≈ 37.9 to 152 µM); in assay [4], < 2 µg/mL. Also, the MIC in assay [5] lay in the range of 16 to 64 µg/mL (≈ 37.9 to 152 µM). In addition, the “MIC APAE006 + PMBN” value in assay [1] is listed as “A (MIC's of 2.0 μg/mL or less = A)”.

Regarding `C[C@@H](O)[C@H](NC(=O)c1ccc(C#Cc2ccc(O)cc2)cc1)C(=O)NO` [Example 133-12], the MIC in the assay with AECO001 (ATCC25922) is < 2 µg/mL; in the assay on APAE001 (ATCC27853), < 2 µg/mL; in assay [2], < 2 µg/mL; in assay [3] it was 16 to 64 µg/mL (≈ 45.2 to 181 µM); in the assay on AECO001 HSA AGP, 2 to 16 µg/mL (≈ 5.64 to 45.2 µM); in assay [4] it was < 2 µg/mL. Moreover, the MIC in assay [5] was in the range of 16 to 64 µg/mL (≈ 45.2 to 181 µM). In addition, the “MIC APAE006 + PMBN” value in assay [1] was “A (MIC's of 2.0 μg/mL or less = A)”.

`C[C@@H](N)[C@H](NC(=O)c1ccc(CCc2ccc(CN3CCOCC3)cc2)cc1)C(=O)NO` [Example 136-1, N-((2S,3R)-3-amino-1-(hydroxyamino)-1-oxobutan-2-yl)-4-(4-(morpholinomethyl)phenethyl)benzamide]: the MIC in the assay with AECO001 (ATCC25922) was 2 to 16 µg/mL (≈ 4.54 to 36.3 µM); in the assay with APAE001 (ATCC27853), 2 to 16 µg/mL (≈ 4.54 to 36.3 µM); in assay [2], < 2 µg/mL; in assay [3], 16 to 64 µg/mL (≈ 36.3 to 145 µM); in the assay with AECO001 HSA AGP it was 16 to 64 µg/mL (≈ 36.3 to 145 µM); in assay [4], < 2 µg/mL. Also, in assay [5], the MIC fell in the range of 16 to 64 µg/mL (≈ 36.3 to 145 µM). Moreover, the “MIC APAE006 + PMBN” value in assay [1] is listed as “A (MIC's of 2.0 μg/mL or less = A)”.

Take `C[C@@H](NC(=O)CNC1CC1)[C@H](NC(=O)c1ccc(C#Cc2ccc(CN3CCOCC3)cc2)cc1)C(=O)NO` [Example 137-2]: the MIC in the assay with AECO001 (ATCC25922) is < 2 µg/mL; in the assay on APAE001 (ATCC27853), 2 to 16 µg/mL (≈ 3.75 to 30 µM); in assay [2], < 2 µg/mL; in assay [3], > 64 µg/mL; against AECO001 HSA AGP, 2 to 16 µg/mL (≈ 3.75 to 30 µM); in assay [4], < 2 µg/mL. Further, in assay [5], the MIC lay in the range of 16 to 64 µg/mL (≈ 30 to 120 µM). Also, the “MIC APAE006 + PMBN” value in assay [1] is listed as “A (MIC's of 2.0 μg/mL or less = A)”.

With `C[C@@H](NC(=O)CNC1CC1)[C@H](NC(=O)c1ccc(C#Cc2ccc(CO)cc2)cc1)C(=O)NO` [Example 137-3], the MIC in the assay on AECO001 (ATCC25922) is < 2 µg/mL; with APAE001 (ATCC27853) it was 2 to 16 µg/mL (≈ 4.31 to 34.4 µM); in assay [2] it was < 2 µg/mL; in assay [3], 16 to 64 µg/mL (≈ 34.4 to 138 µM); in the assay with AECO001 HSA AGP it was 2 to 16 µg/mL (≈ 4.31 to 34.4 µM); in assay [4], < 2 µg/mL. For the same compound, in assay [5], the MIC is 16 to 64 µg/mL (≈ 34.4 to 138 µM). Also, in assay [1], the “MIC APAE006 + PMBN” value was “A (MIC's of 2.0 μg/mL or less = A)”.

Turning to `C[C@@H](N)[C@H](NC(=O)c1ccc(C#Cc2ccc(CCN)cc2)cc1)C(=O)NO` [Example 137-4], the MIC is > 64 µg/mL in the assay on AECO001 (ATCC25922); > 64 µg/mL with APAE001 (ATCC27853); 16 to 64 µg/mL (≈ 42.1 to 168 µM) in assay [2]; > 64 µg/mL in assay [3]; > 64 µg/mL in the assay on AECO001 HSA AGP; 16 to 64 µg/mL (≈ 42.1 to 168 µM) in assay [4]. Further, the MIC in assay [5] was > 64 µg/mL. In addition, in assay [1], the “MIC APAE006 + PMBN” value is “C (MIC's of greater than 16.0 μg/mL to 64.0 μg/mL = C)”.

Consider `CC(C)(N)C(NC(=O)c1ccc(C#Cc2ccc(CO)cc2)cc1)C(=O)NO` (stereo not shown) [Example 137-5], for which the MIC in the assay on AECO001 (ATCC25922) was < 2 µg/mL; in the assay with APAE001 (ATCC27853), < 2 µg/mL; in assay [2] it was < 2 µg/mL; in assay [3], 16 to 64 µg/mL (≈ 41.9 to 168 µM); against AECO001 HSA AGP, 2 to 16 µg/mL (≈ 5.24 to 41.9 µM); in assay [4], < 2 µg/mL. Moreover, in assay [5], the MIC was 2 to 16 µg/mL (≈ 5.24 to 41.9 µM). Further, in assay [1], the “MIC APAE006 + PMBN” value was “A (MIC's of 2.0 μg/mL or less = A)”.

On to `CC(C)(N)C(NC(=O)c1ccc(C#Cc2ccc(CNC3CC3)cc2)cc1)C(=O)NO` (stereo not shown) [Example 137-6], for which the MIC is < 2 µg/mL in the assay with AECO001 (ATCC25922); < 2 µg/mL in the assay on APAE001 (ATCC27853); < 2 µg/mL in assay [2]; 16 to 64 µg/mL (≈ 38 to 152 µM) in assay [3]; 2 to 16 µg/mL (≈ 4.76 to 38 µM) in the assay on AECO001 HSA AGP; < 2 µg/mL in assay [4]. In addition, the MIC in assay [5] is 2 to 16 µg/mL (≈ 4.76 to 38 µM). The “MIC APAE006 + PMBN” value in assay [1] is “A (MIC's of 2.0 μg/mL or less = A)”.

Turning to `CC(C)(N)C(NC(=O)c1ccc(C#Cc2ccc(CNCC(F)F)cc2)cc1)C(=O)NO` (stereo not shown) [Example 137-7], the MIC in the assay with AECO001 (ATCC25922) was < 2 µg/mL; with APAE001 (ATCC27853), < 2 µg/mL; in assay [2] it was < 2 µg/mL; in assay [3], 16 to 64 µg/mL (≈ 36 to 144 µM); with AECO001 HSA AGP, 2 to 16 µg/mL (≈ 4.5 to 36 µM); in assay [4], < 2 µg/mL. The MIC in assay [5] lay within 2 to 16 µg/mL (≈ 4.5 to 36 µM). In assay [1], the “MIC APAE006 + PMBN” value is “A (MIC's of 2.0 μg/mL or less = A)”.

Consider `C[C@@H](O)[C@H](NC(=O)c1ccc(CCc2ccc(CN3CCOCC3)cc2)cc1)C(=O)NO` [Example 137-8], for which the MIC was 2 to 16 µg/mL (≈ 4.53 to 36.2 µM) with AECO001 (ATCC25922); 2 to 16 µg/mL (≈ 4.53 to 36.2 µM) with APAE001 (ATCC27853); < 2 µg/mL in assay [2]; 16 to 64 µg/mL (≈ 36.2 to 145 µM) in assay [3]; 16 to 64 µg/mL (≈ 36.2 to 145 µM) with AECO001 HSA AGP; < 2 µg/mL in assay [4]. The MIC in assay [5] lay within 16 to 64 µg/mL (≈ 36.2 to 145 µM). Further, in assay [1], the “MIC APAE006 + PMBN” value is listed as “A (MIC's of 2.0 μg/mL or less = A)”.

As to “N-[1-((S)-Hydroxycarbamoyl)-2-methylamino-ethyl]-4-[(E)-4-(4-morpholin-4-ylmethyl-phenyl)-but-1-en-3-ynyl]-benzamide [Example 111-4]”, the “MIC AECO001” value against AECO001 (ATCC25922) (AECO001 is ATCC25922) is given as “A (MIC's of 2.0 μg/mL or less = A)”. In addition, the “MIC APAE001” value with APAE001 (ATCC27853) (APAE001 is ATCC27853) was “B (MIC's of greater than 2.0 μg/mL to 16.0 μg/mL = B)”. Besides, the “MIC APAE006 + PMBN” value in assay [1] is “A (MIC's of 2.0 μg/mL or less = A)”. The “MIC APAE006” value in assay [2] (P. aeruginosa, all efflux pumps inactivated) is given as “A (MIC's of 2.0 μg/mL or less = A)”. Also, the “MIC ASAU001” value in assay [3] (S. aureus ATCC29213) is “D (MIC's of greater than 64.0 μg/mL = D)”. Also, the “MIC AECO001 HSA AGP” value in the assay with AECO001 HSA AGP was “C (MIC's of greater than 16.0 μg/mL to 64.0 μg/mL = C)”. Moreover, in assay [4] (ATCC25922 bearing an acrAB mutation), the “MIC AECO063” value is recorded as “A (MIC's of 2.0 μg/mL or less = A)”. In assay [5] (clinical isolate of Acinetobacter baumannii), the “MIC AABA1060” value is listed as “C (MIC's of greater than 16.0 μg/mL to 64.0 μg/mL = C)”.
